# Active and inactive are the calls of the source.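 How the source made its calls: active means compounds giving half or more protection of infected cells from virus-caused growth loss, again on retest; inactive means the rest.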 Where a SMILES comes first, the peptide text is derived from it.
# Tested on: CEM cells HIV-1 protection, formazan growth assay
# Assay: NCI AIDS Antiviral Assay
# Conditions: for IC50: measured here: growth of uninfected CEM cells
# In short: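 Five concentrations of each compound were applied to infected and uninfected human CEM cells. Protection from HIV-1 was judged from growth measured with a soluble formazan assay.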
SMILES,EC50 [µM],IC50 [µM],outcome
C1=CC2/C=C\c3[nH]c4ccccc4c3CCN(C1)C2 (centres undefined),> 162,75.9,
O=C(/C=C/c1ccc(O)c(O)c1)OC1CC(O)(C(=O)O)CC(O)C1O (centres undefined) (tested in a mixture with another compound),> 200,81.3,
CC(C)N1C(=O)N(Cl)C2C1N(Cl)C(=O)N2Cl (centres undefined),> 200,> 200,
O=C1C2C=CC1C1C3OC3C(=O)C21 (centres undefined),> 708,> 708,
O=C1CCCCC/C1=C\c1ccc([N+](=O)[O-])cc1,> 200,25.7,
CC(=O)Nc1ccc(-n2[nH]c(=O)n(C)c2=O)cc1,> 100,> 100,
COc1cc(C2c3c(ccc4ccccc34)C(=O)C3CCC(=O)N32)cc(OC)c1OC (centres undefined),> 50.1,18.2,
Cc1c2oc3c(C)ccc(C(=O)NC4C(=O)NC(C(C)C)C(=O)N5CCCC[C@H]5C(=O)N(C)CC(=O)N(C)[C@@H](C(C)C)C(=O)OC4C)c3nc-2c(C(=O)NC2C(=O)N[C@H](C(C)C)C(=O)N3CCCC[C@H]3C(=O)N(C)CC(=O)N(C)C(C(C)C)C(=O)OC2C)c(N)c1=O (some centres undefined),> 2,0.00331,
O=C1CN(CCN2CCOCC2)CC(=O)N2CCCCN12,> 200,> 200,
CN(C)c1cccc2c(S(=O)(=O)NCCCNCCN)cccc12,> 200,66.1,
CCc1nnc2n1N=C(c1ccc(-c3ccccc3)cc1)CS2,> 200,11.5,
CCC(=O)OC1CC2=CC(=O)CCC2(C)C2CCC3(C)C(OC(=O)CC)CCC3C12 (centres undefined),> 200,> 200,
COc1ccc([C@@H]2CC(=O)NCCCCNCCCN2)cc1,> 200,> 200,
COc1ccc(Br)cc1-c1cc(Br)ccc1OC,> 200,12.6,
O=C1OCC2C1C1c3ccccc3C(O)c3ccccc3C21 (centres undefined),,,inactive
O=c1ccn(CC2COC(CP(=O)(O)O)O2)c(=O)[nH]1 (centres undefined),> 200,> 200,
COc1ccccc1NC(=S)Nc1cc(C)cc(C)n1,> 200,> 200,
Cc1ccc(S(=O)(=O)OC[C@@H]2CO2)cc1,> 115,14.1,
CC(C)(C)[Si](C)(C)OC[C@H]1O[C@@H](n2ccc(=O)[nH]c2=O)[C@H](O[Si](C)(C)C(C)(C)C)[C@]1(O)[C@H](Cl)C(N)=O,> 200,3.72,
CCCC(O)(CCC)C1=NCCN1,> 200,> 200,
COc1cccc(C2c3cc4c(cc3OC(Nc3ccccc3)C2C)OCO4)c1OC (centres undefined),> 200,2.95,
O=S(=O)(O)c1cc(N=Nc2ccc(O)c3ccccc23)ccc1/C=C/c1ccc(N=Nc2ccc(O)c3ccccc23)cc1S(=O)(=O)O,13.5,50.1,

SMILES,EC50 [µM],IC50 [µM],outcome
CCOC(=O)NNP(=O)(NNC(=O)OCC)c1ccccc1,> 110,> 110,
CC(C)(C)CC(C)(C)c1ccc(OCCOCC[N+](C)(C)Cc2ccccc2)cc1,,,inactive
O=C(O)CSCCOCCSCC(=O)O,> 708,> 708,
Nc1nc2c(nc(N)n2Cc2ccccc2)c(=O)[nH]1,> 74.1,> 74.1,
CC(=O)N=C1N(/C=C2\C(=O)Oc3ccccc3C2=O)C(=O)/C(=C/c2ccccc2Cl)N1C,> 200,148,
COc1ccc2c(c1OC)Oc1c(OC)ccc3c1C(C2)N(C)C[C@@H]3O (some centres undefined),> 251,> 251,
Cc1cn(C2CCC(COP(=O)(OCC(=O)C(C)(C)C)OCC(=O)C(C)(C)C)O2)c(=O)[nH]c1=O (centres undefined),30.9,> 200,
CC(=O)NC(CCCCNCc1ccccc1)C(=O)NCc1ccccc1 (centres undefined),> 676,> 676,
O=C1OS(=O)(=O)c2ccccc21,> 200,> 200,
COc1cc(OC)c2c(C)cc(=O)oc2c1,> 200,> 200,
Cc1cn(C2CC3C(COC(c4ccccc4)N3O)O2)c(=O)[nH]c1=O (centres undefined),> 200,34.7,
CN(C)CCSC(=Nc1ccccc1)N1CCCCC1,> 123,20.9,
CCCCCCC(=O)C/C(CCC(=O)N(Cc1ccccc1)Cc1ccccc1)=N\Nc1ccc([N+](=O)[O-])cc1[N+](=O)[O-],> 12.3,> 12.3,
CN(C)P1(=S)NCC(C(C)(C)C)CO1 (centres undefined),> 105,> 105,
Cn1cnc(N)c1S(=O)(=O)Nc1ccccc1Cl,> 562,> 562,
COc1cc[c]([Sb]([Br])([CH]=C(C)C)([CH]=C(C)C)[CH]=C(C)C)cc1,> 380,3.02,
COCCOCc1nc(C#N)c(N)o1,,,inactive
CC(C)(C)OC(=O)NCC(=O)NCC(=O)NCC(=O)NCC(=O)O (HELM PEPTIDE1{[CC(C)(C)OC(=O)[*:2]].G.G.G.G}$$$$V2.0),> 724,> 724,
O=C1NNC2CCCCC2O1 (centres undefined),> 1150,> 1150,
CN(C)C(=S)/N=c1\ssc(=S)n1Cc1ccco1,,,inactive
COc1cc2oc(-c3ccc(O)cc3)cc(=O)c2c(OC)c1O,> 200,> 200,
O=C(O)C12C3C4C1C1C2C3C41C(=O)O (centres undefined),> 200,> 200,

# — PubChem BioAssay AID179 (DTP/NCI, 2004)
